These results are taken from patent US9777069B2, “Compositions and methods for detection of methadone metabolite” (Siemens Healthcare Diagnostics Inc., priority 2012, dated 2017).

The assay has as its system anti-EDDP antibody. Nature of the assay: Assay for EDDP analyte: homogeneous enzyme immunoassay with G6PDH-product of Step 14-SH-Step 14 conjugate, absorbance at 340 nm. Conditions: 1 min after enzyme conjugate addition, Tris buffer pH 7.8. In kind it is binding. How it is done:
The experiments were conducted on an AGILENT® 8453 UV spectrophotometer (Agilent Technologies, Santa Clara Calif.). Typically, 2.5 mL Tris buffer (50 mM, containing 3.3 mM MgCl2, pH 7.8), 0.2 ml anti-EDDP antibody (1 mg/mL, commercially available from Lin Zhi International Inc. Sunnyvale Calif.), 0.1 mL glucose-6-phosphate (0.1 M), 0.1 mL NADP (0.006M) were taken in a quartz cuvette. To this, 0-4029 ng/mL EDDP in 10 μL methanol was added and mixed well. Then, 10 μL G6PDH-product of Step 14-SH-Step 14 (1 mg/mL) was added and mixed well. Increase in the absorbance at 340 nm was monitored at 1 min after the enzyme addition.

Turning to `CC=C1N(C)C(C)CC1(c1ccccc1)c1ccccc1` (stereo not drawn) [EDDP, 2-ethylidene-1,5-dimethyl-3,3-diphenylpyrrolidine], the “mAu 340 nm (increase in the absorbance at 340 nm)” value came out at 456 mAu (EDDP 370 ng/mL), 497 mAu (EDDP 1221 ng/mL) and 561 mAu (EDDP 4029 ng/mL).
